The text below walks through data of patent US20020028836A1, “Potassium channel openers” (priority 2000, published 2002).

The subject of series [1] is primary cultured guinea-pig urinary bladder (GPB) cells. Description: Membrane hyperpolarization (MHP) assay, DiBAC(4)3 / FLIPR. It is filed as cell-based. The following applies: Cavia porcellus; for pEC50: concentration that elicits 50% of the maximal response for the test sample; for Emax: maximal steady-state hyperpolarization, normalized to response with 10 μM P1075 (100%). In a few lines: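 Primary smooth-muscle cells from male guinea-pig bladder, grown to confluence, loaded 30 min at 37° C with 5 μM DiBAC(4)3 in HEPES buffer pH 7.4. Fluorescence drop on FLIPR followed 25 min after compound; steady-state hyperpolarization normalized to 10 μM P1075 (100%), EC50 from four-parameter fit of five concentrations.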

In series [2] the test system is tissue strips obtained from Landrace pig bladders. As to the kind of experiment: Functional potassium channel opening activity in isolated bladder strips (field-stimulated twitch). The following applies: for Index: ED50 for P1075 divided by ED50 for the test agonist in a given tissue, averaged; for pEC50: amount of agent necessary to cause 50% of the agent's maximal response, read-out: ED50 (the source's name). In a few lines:
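Mucosa-free female Landrace pig bladder strips in Krebs Ringer bicarbonate (pH 7.4, 37° C., 0.004 mM propranolol), 1.0 g preload, field-stimulated at 0.05 Hz, 0.5 ms, 20 V for twitch. Cumulative concentration-response curves; maximal efficacy as % of P1075, ED50 fitted, potency index = P1075 ED50/test ED50 per tissue, averaged.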

[3] abbreviates: Sus scrofa, maximal efficacy relative to P1075, field stimulation 0.05 Hz, 0.5 ms, 20 volts.

The melting point is the temperature, or range, at which the solid turns liquid. As usually defined, the Emax is the greatest response seen or fitted, relative to the assay's reference.

Each structure is given as a SMILES string. pEC50: −log10 of the molar value. Like-named read-outs stand apart in the source and are kept apart here.

Turning to `Cc1ccc(C(=O)NC(NC(=S)Nc2ccccc2C)C(F)(F)F)cc1` (stereo not shown) [Example 2, 4-methyl-N-{2,2,2-trifluoro-1-[(2-toluidinocarbothioyl)amino]ethyl}benzamide], the melting point is 210 to 211 °C.
Same read-out and setting: the value for `Cc1ccc(C(=O)N[C@@H](COC(C)(C)C)NC(=S)Nc2cccc([N+](=O)[O-])c2)cc1` [Example 31, N-((1R)-2-(tert-butoxy)-1-{[(3-nitroanilino)carbothioyl]amino}ethyl)-4-methylbenzamide] was 169 to 171 °C.
`N#CN=C(Nc1cccnc1)NC(NC(=O)c1ccccc1)C(Cl)(Cl)Cl` (stereo not shown) [Example 49, N-(2,2,2-trichloro-1-{[(cyanoimino)(3-pyridinylamino)methyl]amino}ethyl)benzamide]: the pEC50 is 7.40 in series [1] and 5.52 in series [2] (Sus scrofa). Further, the Emax came to 92% in series [1] and 100% in series [2] (setting [3]). The molecule also showed an Index in series [2] of 0.031.
In the same order, the values of `Cc1ccccc1C(=O)NC(NC(=NC#N)Nc1cccnc1)C(Cl)(Cl)Cl` (stereo not shown) [Example 50, 2-methyl-N-(2,2,2-trichloro-1-{[(cyanoimino)(3-pyridinylamino)methyl]amino}ethyl)benzamide] are 7.00, 4.77, 92%, 90% and 0.007.
Regarding `Cc1ccc(C(=O)NC(NC(=NC#N)Nc2cccc(F)c2)C(C)(C)C)cc1` (stereo not shown) [Example 53, N-(1-{[(cyanoimino)(3-fluoroanilino)methyl]amino}-2,2-dimethylpropyl)-4-methylbenzamide], the melting point lay in the range of 193 to 194 °C.
On the same count and under the same terms, the value for `N#CN=C(Nc1cccnc1)NC(NC(=O)c1ccc(Cl)cc1)C1CC1` (stereo not shown) [Example 54, 4-chloro-N-[{[(cyanoimino)(3-pyridinylamino)methyl]amino}(cyclopropyl)methyl]benzamide] was 137 to 139 °C; that for `Cc1ccc(C(=O)NC(NC(=NC#N)Nc2ccc(Cl)nc2)C(C)(C)C)cc1` (stereo not shown) [Example 55, N-(1-{[[(6-chloro-3-pyridinyl)amino](cyanoimino)methyl]amino}-2,2-dimethylpropyl)-4-methylbenzamide] was 194 to 196 °C; that for `N#CN=C(Nc1cccc(F)c1)NC(NC(=O)c1ccc(Cl)cc1)c1ccsc1` (stereo not shown) [Example 56, 4-chloro-N-[{[(cyanoimino)(3-fluoroanilino)methyl]amino}(3-thienyl)methyl]benzamide] was 166 to 168 °C.
Still for that read-out and setting: the figure for `CC(C)(C)C(NC(=O)c1ccc(Cl)cc1)NC(=NC#N)Nc1ccccc1F` (stereo not shown) [Example 69, 4-chloro-N-(1-{[(cyanoimino)(2-fluoroanilino)methyl]amino}-2,2-dimethylpropyl)benzamide] is 208 to 209 °C.
The same measure, in the same setting: the figure for `CC(C)(C)C(NC(=O)c1ccc(Cl)cc1)NC(=NC#N)Nc1cccc(C(F)(F)F)c1` (stereo not shown) [Example 71, 4-chloro-N-[1-({(cyanoimino)[3-(trifluoromethyl)anilino]methyl}amino)-2,2-dimethylpropyl]benzamide] is 184 to 186 °C; for `CC(C)(C)C(NC(=O)c1ccc(Cl)cc1)NC(=NC#N)Nc1cc(F)cc(F)c1` (stereo not shown) [Example 72, 4-chloro-N-(1-{[(cyanoimino)(3,5-difluoroanilino)methyl]amino}-2,2-dimethylpropyl)benzamide] it is 196 to 198 °C; for `CC(C)(C)C(NC(=O)c1ccc(Cl)cc1)NC(=NC#N)Nc1cc(F)ccc1F` (stereo not shown) [Example 73, 4-chloro-N-(1-{[(cyanoimino)(2,5-difluoroanilino)methyl]amino}-2,2-dimethylpropyl)benzamide] it is 196 to 198 °C.
`CC(C)(C)C(NC(=O)c1ccc(Cl)cc1)NC(=NC#N)Nc1c(F)cccc1F` (stereo not shown) [Example 74, 4-chloro-N-(1-{[(cyanoimino)(2,6-difluoroanilino)methyl]amino}-2,2-dimethylpropyl)benzamide] yielded a melting point of 211 to 213 °C.
On the same count and under the same terms, the value for `CC(C)(C)C(NC(=O)c1ccc(Cl)cc1)NC(=NC#N)Nc1cccc(Cl)c1` (stereo not shown) [Example 75, 4-chloro-N-(1-{[(cyanoimino)(3-chloroanilino)methyl]amino}-2,2-dimethylpropyl)benzamide] was 158 to 160 °C; that for `COc1cccc(NC(=NC#N)NC(NC(=O)c2ccc(Cl)cc2)C(C)(C)C)c1` (stereo not shown) [Example 76, 4-chloro-N-(1-{[(cyanoimino)(3-methoxyanilino)methyl]amino}-2,2-dimethylpropyl)benzamide] was 173 to 175 °C.
Turning to `CC(C)(C)C(NC(=O)c1ccc(Cl)cc1)NC(=NC#N)NCc1ccccc1Cl` (stereo not shown) [Example 77, 4-chloro-N-(1-{[[(2-chlorobenzyl)amino](cyanoimino)methyl]amino}-2,2-dimethylpropyl)benzamide], the melting point was 180 to 182 °C.
Same read-out and setting: the figure for `CC(C)(C)C(NC(=O)c1ccc(Cl)cc1)NC(=NC#N)NCc1cccc(Cl)c1` (stereo not shown) [Example 78, 4-chloro-N-(1-{[[(3-chlorobenzyl)amino](cyanoimino)methyl]amino}-2,2-dimethylpropyl)benzamide] is 178 to 180 °C.
In the case of `C=CC(C)(C)CC(NC(=O)c1ccc(Cl)cc1)NC(=NC#N)Nc1cccnc1` (stereo not shown) [Example 92, 4-chloro-N-(1-{[(cyanoimino)(3-pyridinylamino)methyl]amino}-3,3-dimethyl-4-pentenyl)benzamide], the pEC50 in series [1] was 6.60; in series [2] (Sus scrofa), 5.74. The Emax in series [1] was determined as 71%; in series [2] (setting [3]), 76%. Also, the Index in series [2] was 0.047.
On the same counts, the results for `CC(C)(C)OC(=O)N1CCC[C@@H]1[C@@H](NC(=O)c1ccc(Cl)cc1)NC(=NC#N)Nc1cccnc1` [Example 98, Tert-butyl (2R)-2-((R)-[(4-chlorobenzoyl)amino]{[(cyanoimino)(3-pyridinylamino)methyl]amino}methyl)-1-pyrrolidinecarboxylate] are 5.96, 4.48, 62%, 30% and 0.004.
On the same counts, the results for `CC(C)(C)C(NC(=O)c1ccc(I)cc1)NC(=NC#N)Nc1cccnc1` (stereo not shown) [Example 103, N-(1-{[(cyanoimino)(3-pyridinylamino)methyl]amino}-2,2-dimethylpropyl)-4-iodobenzamide] are 7.30, 5.62, 103%, 83% and 0.450.
On the same counts, the results for `CC(C)(C)C(NC(=O)c1ccc(Cl)cc1F)NC(=NC#N)Nc1cccnc1` (stereo not shown) [Example 106, 4-chloro-N-(1-{[(cyanoimino)(3-pyridinylamino)methyl]amino}-2,2-dimethylpropyl)-2-fluorobenzamide] are 6.20, 4.92, 85%, 69% and 0.010.
For the molecule `CC(C)(C)C(NC(=O)c1ccc(Cl)cc1)NC(=N[N+](=O)[O-])Nc1cccnc1` (stereo not shown) [Example 123, 4-chloro-N-(1-{[(nitroimino)(3-pyridinylamino)methyl]amino}-2,2-dimethylpropyl)benzamide], the pEC50 in series [1] was 6.07; in series [2] (Sus scrofa), 5.00. Besides, the values for the Emax in series [1] and in series [2] (setting [3]) were 90% and 63%, respectively. In series [2], this molecule yielded an Index of 0.028.
Turning to `CC(C)(C)CC(NC(=O)c1ccc(Cl)cc1)NC(=N[N+](=O)[O-])Nc1cccnc1` (stereo not shown) [Example 124, 4-chloro-N-(1-{[(nitroimino)(3-pyridinylamino)methyl]amino}-3,3-dimethylbutyl)benzamide], in series [1], the pEC50 was 6.96 and the Emax came to 98%. Moreover, in series [2], the Index worked out at 0.012 and the pEC50 was 5.03. Further, the “Efficacy (% P1075)” value in series [2] (maximal efficacy relative to P1075, field stimulation 0.05 Hz, 0.5 ms, 20 volts) came out at 47 % P1075.
As to `C=CC(C)(C)CC(NC(=O)c1ccc(Cl)cc1)NC(=N[N+](=O)[O-])Nc1cccnc1` (stereo not shown) [Example 133, 4-chloro-N-(1-{[(nitroimino)(3-pyridinylamino)methyl]amino}-3,3-dimethyl-4-pentenyl)benzamide], the pEC50 is 7.41 in series [1] and 5.08 in series [2] (Sus scrofa). Also, the Emax turned out to be 106% in series [1] and 58% in series [2] (setting [3]). Also, the Index in series [2] amounted to 0.039.
As to `O=C(NC(NC(=S)Nc1cccnc1)C(Cl)(Cl)Cl)c1ccc(I)cc1` (stereo not shown) [Example 148, 4-iodo-N-(2,2,2-trichloro-1-{[(3-pyridinylamino)carbothioyl]amino}ethyl)benzamide], the pEC50 was 7.02 in series [1] and 5.96 in series [2] (Sus scrofa). Further, the Emax in series [1] is 61%; in series [2] (setting [3]), 78%. The Index in series [2] is on record as 0.082.
In the same order, the values of `O=C(CCc1ccccc1)NC(NC(=S)Nc1cccc([N+](=O)[O-])c1)C(Cl)(Cl)Cl` (stereo not shown) [Example 149, 3-phenyl-N-(2,2,2-trichloro-1-{[(3-nitroanilino)carbothioyl]amino}ethyl)propanamide] are 7.08, 5.62, 129%, 95% and 0.076.
